Source: patent US20230391868A1, “COMPOSITIONS FOR AND METHODS OF TREATING CANCER” (The George Washington University, priority 2022, published 2023)

How the values were obtained:
[1] = tested on: human THP1-derived macrophages; experiment: Pro-phagocytic signal gene expression in THP1-derived macrophages; type: cell-based; settings: human THP1-derived macrophages
Description: Macrophages were polarized to M1-like phenotype using 50 ng/mL of interferon gamma (IFNγ, 575306, Biolegend) and 100 ng/mL of bacterial lipopolysaccharide (LPS, L2880, Sigma Aldrich, St. Louis, MO) for 24 hours. To polarize macrophages towards the M2-like phenotype, macrophages were stimulated with 20 ng/mL of IL-4 (214-14, PeproTech) and 20 ng/mL of IL-13 (575904, Biolegend). THP1 monocytes were treated with 5 ng/mL of phorbol 12-myristate 13-acetate (PMA) to induce differentiation into macrophages. Once converted to macrophages, media was replaced to remove PMA prior to treatment and/or polarization. Polarization towards M1 and M2 phenotypes was performed with respective recombinant human cytokines from PeproTech: 50 ng/mL of IFNγ (300-02), 20 ng/mL IL-4 (200-04), and 20 ng/mL IL-13 (200-13). 100 ng/mL LPS was also used to polarize toward the M1 phenotype. 3. In vivo Studies.
qRT-PCR: Total RNA was extracted from cells using the Trizol reagent according to manufacturer's instructions (ThermoFisher Scientific, 15596018). Samples were then processed immediately or stored at −80° C. RNA was quantified using a NanoDrop One Spectrophotometer (ThermoFisher Scientific). The 260/280 ratios were routinely over 1.8. Sample cDNA was produced using the iScript cDNA synthesis kit (Bio-Rad, 1708891). Target mRNA was quantified using MyIQ single-color real-time PCR detection system from Bio-Rad (Bio-Rad, Hercules, CA) and iQ SYBR green Supermix (Bio-Rad, 1708882). The following primers were synthesized by Invitrogen (Waltham, MA) with sequences designed by Origene (Rockville, MD): mouse R-actin (MP200232), mouse Nos2 (MP208933), mouse MRC1 (MP207800), human R-actin (HP204660), human IL-1β (HP200544), human MRC1 (HP206121), human NOS2 (HP200591), human CD209 (HP214086), mouse SIRPα (MP215450), mouse LRP1 (MP207604), human LRP1 (HP206040), mouse MFGE8 (MP208190), human MFGE8 (HP225757), mouse CD36 (MP201923), human CD36 (HP200058), and mouse CD47 (MP201932). […] Quantification is expressed in arbitrary units and target mRNA levels were normalized to R-actin expression.

WM1361A melanoma cells = experiment: CD47 gene expression upon IFNγ in WM1361A cells; type: cell-based, human; settings: NextA 2.5 μM, 5 μM, and 10 μM, 12 hr post-stimulation (FIG. 3K)
Description: qRT-PCR: Total RNA was extracted from cells using the Trizol reagent according to manufacturer's instructions (ThermoFisher Scientific, 15596018). Samples were then processed immediately or stored at −80° C. RNA was quantified using a NanoDrop One Spectrophotometer (ThermoFisher Scientific). The 260/280 ratios were routinely over 1.8. Sample cDNA was produced using the iScript cDNA synthesis kit (Bio-Rad, 1708891). Target mRNA was quantified using MyIQ single-color real-time PCR detection system from Bio-Rad (Bio-Rad, Hercules, CA) and iQ SYBR green Supermix (Bio-Rad, 1708882). […] Quantification is expressed in arbitrary units and target mRNA levels were normalized to R-actin expression.
This phenomenon was further examined in human melanoma cell lines to test the translational application of the results obtained using mouse models. […] Furthermore, the effects of HDAC6 KD on IFNγ-driven CD47 upregulation was analyzed. […] The effects of pharmacological inhibition of HDAC6 in other human melanoma cell lines (WM1361A and WM793) were also assessed. […]

SM1 melanoma tumors = experiment: SM1 melanoma tumor growth in vivo; parameters: species or system mouse; settings: SM1-bearing C57/Bl6 mice, NextA 20 mg/kg intraperitoneally, anti-CD47 100 μg intratumorally, every other day, vs vehicle control
Description: Animal experiments were performed in accordance with protocol A354 approved by the Institutional Care and Use Committee (IACUC) at The George Washington University. Female C57BL/6 mice (4-6 weeks old) were purchased from Charles River Laboratories (Wilmington, Massachusetts, USA). Mice were injected subcutaneously in their right flank with 10^6 in vivo passaged SM1 melanoma cells suspended in 100 μL of PBS (Corning, 21-040-CV) at day 0. Cages were randomly assigned to different treatment groups, and mice were treated intraperitoneally with 100 μL of vehicle control or NextA at 20 mg/kg every other day when tumors became palpable, which was a week after tumor implantation.
Six days after the first NextA treatment, mice were also treated intratumorally with 100 μg of αCD47 every two days (clone miap301, BE0270, BioXCell, Lebanon, NH, USA) until the end of the study. Tumor measurements were taken every other day using caliper measurements and calculated using the formula L×W^2/2. All animals were routinely monitored for early signs of toxicity. […]
First, C57/Bl6 mice were inoculated with SM1 melanoma cells (n=15 mice per group). […] The concentrations of NextA and anti-CD47 were determined by performing drug and antibody titrations. Tumor growth was monitored every other day from when the tumors became palpable until the experimental endpoint.

Compound: CCCCN(Cc1ccc(C(=O)NO)cc1)C(=O)Nc1ccccc1 [NextA, Nexturastat A]
- expression of Lrp1, Cd36, and Mfge8 [1]: significant increase
- IFNγ-driven CD47 upregulation (WM1361A melanoma cells): prevented
- tumor growth (SM1 melanoma tumors): moderately decreased tumor growth
- tumor growth (SM1 melanoma tumors; listed as Nexturastat A): enhanced the antitumor efficacy of anti-CD47
